Laboratory results published in publication PMC7229206, “Split Intein-Mediated Protein Ligation for detecting protein-protein interactions and their inhibition” (Nature Communications, 2020).

Target: T1, EGFR (Homo sapiens, UniProt P00533)
T1 construct: EGFR-IN; with SHC1
Assay: SIMPL western blot of EGFR/SHC1 interaction in cells (indirect readout of EGFR kinase activity)
Type: cell-based

T1 sequence (P00533 25-1210): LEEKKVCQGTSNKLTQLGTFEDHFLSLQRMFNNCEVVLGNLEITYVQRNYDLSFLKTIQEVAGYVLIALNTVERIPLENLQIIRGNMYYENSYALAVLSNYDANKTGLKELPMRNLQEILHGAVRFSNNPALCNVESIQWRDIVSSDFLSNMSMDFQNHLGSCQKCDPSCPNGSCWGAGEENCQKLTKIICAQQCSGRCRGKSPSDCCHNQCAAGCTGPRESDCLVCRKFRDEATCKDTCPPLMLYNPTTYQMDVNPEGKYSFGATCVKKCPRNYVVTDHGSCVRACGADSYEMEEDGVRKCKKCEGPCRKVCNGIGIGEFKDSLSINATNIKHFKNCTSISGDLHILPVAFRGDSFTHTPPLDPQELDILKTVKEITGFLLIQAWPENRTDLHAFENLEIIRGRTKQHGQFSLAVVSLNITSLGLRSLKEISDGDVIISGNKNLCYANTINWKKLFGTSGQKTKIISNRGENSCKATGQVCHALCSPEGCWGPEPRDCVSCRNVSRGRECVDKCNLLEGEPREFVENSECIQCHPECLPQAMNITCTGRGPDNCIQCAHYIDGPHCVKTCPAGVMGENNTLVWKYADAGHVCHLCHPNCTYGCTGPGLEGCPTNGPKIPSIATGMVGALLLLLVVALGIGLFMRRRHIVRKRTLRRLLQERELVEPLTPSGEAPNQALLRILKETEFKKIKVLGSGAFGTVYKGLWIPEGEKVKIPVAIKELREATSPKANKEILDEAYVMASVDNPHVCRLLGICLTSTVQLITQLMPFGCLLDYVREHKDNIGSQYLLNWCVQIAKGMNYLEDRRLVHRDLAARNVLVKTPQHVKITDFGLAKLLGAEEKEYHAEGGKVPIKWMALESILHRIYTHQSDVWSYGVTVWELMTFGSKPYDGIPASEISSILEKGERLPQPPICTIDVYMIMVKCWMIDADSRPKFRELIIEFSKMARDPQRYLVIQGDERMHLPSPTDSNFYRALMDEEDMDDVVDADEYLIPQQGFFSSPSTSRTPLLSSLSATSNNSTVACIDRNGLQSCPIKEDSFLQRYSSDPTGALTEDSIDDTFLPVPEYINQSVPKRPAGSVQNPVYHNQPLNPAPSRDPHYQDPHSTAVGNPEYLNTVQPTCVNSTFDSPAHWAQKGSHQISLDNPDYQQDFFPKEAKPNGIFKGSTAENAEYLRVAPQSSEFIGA
T1 sequence (P29353 whole entry, further chain): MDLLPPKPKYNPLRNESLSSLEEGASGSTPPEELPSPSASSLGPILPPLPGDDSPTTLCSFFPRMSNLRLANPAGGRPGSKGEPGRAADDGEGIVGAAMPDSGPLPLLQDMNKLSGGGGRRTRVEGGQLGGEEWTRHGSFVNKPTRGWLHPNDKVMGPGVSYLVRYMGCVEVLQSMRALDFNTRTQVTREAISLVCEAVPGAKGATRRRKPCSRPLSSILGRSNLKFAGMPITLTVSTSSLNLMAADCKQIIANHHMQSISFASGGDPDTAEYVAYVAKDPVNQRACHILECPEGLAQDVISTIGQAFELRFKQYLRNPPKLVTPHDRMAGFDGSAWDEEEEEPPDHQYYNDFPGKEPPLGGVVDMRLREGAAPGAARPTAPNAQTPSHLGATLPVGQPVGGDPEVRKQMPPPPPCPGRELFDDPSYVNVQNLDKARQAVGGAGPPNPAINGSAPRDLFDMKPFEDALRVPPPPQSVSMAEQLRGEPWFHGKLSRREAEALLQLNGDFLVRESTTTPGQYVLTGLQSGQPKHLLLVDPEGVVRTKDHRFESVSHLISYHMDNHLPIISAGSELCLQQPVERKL

## COc1cc2ncnc(Nc3cccc(Cl)c3)c2cc1OC [AG1478]
  SIMPL western blot of EGFR/SHC1 interaction in cells (indirect readout of EGFR k): The spliced EGFR-SHC1 band observed by western blot diminished with increasing AG1478 concentration.
